Literature values in patent US20140037729A1, “COMBINATION OF AN OPIOID AGONIST AND AN OPIOID ANTAGONIST IN THE TREATMENT OF PARKINSON'S DISEASE” (Euro-Celtique, S.A., priority 2010, published 2014).

Columns and labels:
[1] = reported
parkinsonian patients = conditions: at higher doses; Berg et al. 1999
parkinsonian monkeys = conditions: in the long term; Samadi et al. 2005

**Q.** For `C=CCN1CC[C@]23c4c5ccc(O)c4O[C@H]2C(=O)CC[C@@]3(O)[C@H]1C5` [Naloxone, naloxone], which oral bioavailability [1] is on record?
**A.** Its oral bioavailability is no more than 2%.

**Q.** With `CN1CC[C@]23c4c5ccc(O)c4O[C@H]2[C@@H](O)C=C[C@H]3[C@H]1C5` [morphine] as the molecule, how does the akinesia (parkinsonian patients) read?
**A.** Its akinesia is “increase in akinesia”.

**Q.** With `O=C1CC[C@@]2(O)[C@H]3Cc4ccc(O)c5c4[C@@]2(CCN3CC2CC2)[C@H]1O5` [naltrexone] as the molecule, how does the dyskinesias (parkinsonian monkeys) read?
**A.** The dyskinesias was “increases dyskinesias”.
